Measurements as given in patent US7026339B2, “Inhibitors of HCV NS5B polymerase” (priority 2003, dated 2006).

What follows are compounds tested on HuH-7 replicon cells 5–15 and 9–13 (HCV replication) (assay: Inhibition of viral replication in HuH-7 replicon cells (HCV RNA / GAPDH RNA by multiplex RT-PCR)). Conditions: Hepatitis C virus, 72 h; inhibiting 50% of replication; HuH-7 replicon cells, 3 days; read-out: IC50.
Assay type: cell-based
In short: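 HCV and GAPDH RNA were measured by multiplex TaqMan RT-PCR (HCV 5′ untranslated region) after 3-day compound treatment at 37 °C, final 100 μM–1 μM in 1% DMSO. Cells were plated 24 h beforehand at 7×10^3/well. Read-out: HCV-to-GAPDH ratio expressed as percent control versus untreated cells.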
Compound COc1cccc(CC(=O)N/N=C/c2cc(Cl)ccc2OS(=O)(=O)c2ccc(C)cc2)c1 [Compound 155, 4-chloro-2-((E)-{[(3-methoxyphenyl)acetyl]hydrazono}methyl)-phenyl 4-methylbenzenesulfonate] has an IC50 of under 5 µM. Compound COc1cccc(CC(=O)N/N=C/c2cc(OC)ccc2OS(=O)(=O)c2ccc(C)cc2)c1 [Compound 156, 4-methoxy-2-((E)-{[(3-methoxyphenyl)acetyl]hydrazono}methyl)-phenyl 4-methylbenzenesulfonate] has an IC50 of under 5 µM. COc1cccc(CC(=O)N/N=C/c2cc(C)ccc2OS(=O)(=O)c2ccc(C)cc2)c1 [Compound 157, 2-((E)-{[(3-methoxyphenyl)acetyl]hydrazono}methyl)-4-methylphenyl 4-methylbenzenesulfonate] showed an IC50 of under 5 µM. Work on COc1cccc(CC(=O)N/N=C/c2cc(F)ccc2OS(=O)(=O)c2ccc(C)cc2)c1 [Compound 158, 4-fluoro-2-((E)-{[(3-methoxyphenyl)acetyl]hydrazono}methyl)-phenyl 4-methylbenzenesulfonate] yielded an IC50 of under 5 µM. In the case of COc1cccc(CC(=O)N/N=C/c2cccc(F)c2OS(=O)(=O)c2ccc(C)cc2)c1 [Compound 159], the IC50 is reported as 5 to 50 µM. With COc1cccc(CC(=O)N/N=C/c2cccc(OC)c2OS(=O)(=O)c2ccc(C)cc2)c1 [Compound 160, 2-methoxy-6-((E)-{[(3-methoxyphenyl)acetyl]hydrazono}methyl)-phenyl 4-methylbenzenesulfonate] the IC50 was 5 to 50 µM. Work on CCOc1cccc(/C=N/NC(=O)Cc2cccc(OC)c2)c1OS(=O)(=O)c1ccc(C)cc1 [Compound 161, 2-ethoxy-6-((E)-{[(3-methoxyphenyl)acetyl]hydrazono}methyl)-phenyl 4-methylbenzenesulfonate] yielded an IC50 of 5 to 50 µM. With COc1cccc(CC(=O)N/N=C/c2c(OS(=O)(=O)c3ccc(C)cc3)ccc3ccccc23)c1 [Compound 162, 1-((E)-{2-[2-(3-methoxyphenyl)acetyl]hydrazono}methyl)-2-naphthyl 4-methylbenzenesulfonate] the IC50 was 5 to 50 µM. For COc1cccc(CC(=O)N/N=C/c2cccc(C)c2OS(=O)(=O)c2ccc(C)cc2)c1 [Compound 163, 2-((E)-{[(3-methoxyphenyl)acetyl]hydrazono}methyl)-6-methylphenyl 4-methylbenzenesulfonate], the IC50 was under 5 µM. With Cc1ccc(S(=O)(=O)Oc2ccc(F)cc2/C=N/NC(=O)Cc2cccc(Cl)c2)cc1 [Compound 164, 2-((E)-{[(3-chlorophenyl)acetyl]-hydrazono}methyl)-4-fluorophenyl 4-methylbenzenesulfonate] the IC50 was under 5 µM. COc1cccc(CC(=O)N/N=C/c2cccc(OC)c2OS(=O)(=O)c2ccc(C(F)(F)F)cc2)c1 [Compound 165, 2-methoxy-6-((E)-{[(3-methoxyphenyl)acetyl]hydrazono}methyl)-phenyl 4-(trifluoromethyl)-benzenesulfonate] showed an IC50 of under 5 µM. With COc1cccc(CC(=O)N/N=C/c2cc(Br)ccc2OS(=O)(=O)c2ccc(C(F)(F)F)cc2)c1 [Compound 166] the IC50 was under 5 µM. Compound COc1cccc(CC(=O)N/N=C/c2cccc(C)c2OS(=O)(=O)c2ccc(C(F)(F)F)cc2)c1 [Compound 168, 2-((E)-{[(3-methoxyphenyl)acetyl]hydrazono}methyl)-6-methylphenyl 4-(trifluoromethyl)benzenesulfonate] has an IC50 of under 5 µM. Compound COc1cccc(CC(=O)N/N=C/c2c(Br)ccc(OC)c2OS(=O)(=O)c2ccc(C(F)(F)F)cc2)c1 [Compound 169, 3-bromo-6-methoxy-2-((E)-{[(3-methoxyphenyl)acetyl]hydrazono}methyl)-phenyl 4-(trifluoromethyl)benzenesulfonate] has an IC50 of under 5 µM. COc1cccc(CC(=O)N/N=C/c2c(OC)cccc2OS(=O)(=O)c2ccc(C(F)(F)F)cc2)c1 [Compound 170, 3-methoxy-2-((E)-{[(3-methoxyphenyl)acetyl]hydrazono}methyl)-phenyl 4-(trifluoromethyl)benzenesulfonate] gave an IC50 of under 5 µM. With COc1cccc(CC(=O)N/N=C/c2cc(C)ccc2OS(=O)(=O)c2ccc(C(F)(F)F)cc2)c1 [Compound 171, 2-((E)-{[(3-methoxyphenyl)acetyl]hydrazono}methyl)-4-methylphenyl 4-(trifluoromethyl)benzenesulfonate] the IC50 was under 5 µM. Compound COc1cccc(CC(=O)N/N=C/c2cc(F)ccc2OS(=O)(=O)c2ccc(C(F)(F)F)cc2)c1 [Compound 172, 4-fluoro-2-((E)-{[(3-methoxyphenyl)acetyl]hydrazono}methyl)-phenyl 4-(trifluoromethyl)benzenesulfonate] has an IC50 of under 5 µM. With Cc1cccc(/C=N/NC(=O)Cc2cccc(Cl)c2)c1OS(=O)(=O)c1ccc(C(F)(F)F)cc1 [Compound 173, 2-((E)-{[(3-chlorophenyl)acetyl]hydrazono}methyl)-6-methylphenyl 4-(trifluoromethyl)benzenesulfonate] the IC50 was under 5 µM. COc1cccc(OS(=O)(=O)c2ccc(C(F)(F)F)cc2)c1/C=N/NC(=O)Cc1cccc(Cl)c1 [Compound 174, 2-((E)-{[(3-chlorophenyl)acetyl]hydrazono}methyl)-3-methoxyphenyl 4-(trifluoromethyl)benzenesulfonate] was tested, and the IC50 was under 5 µM. For Cc1ccc(OS(=O)(=O)c2ccc(C(F)(F)F)cc2)c(/C=N/NC(=O)Cc2cccc(Cl)c2)c1 [Compound 175, 2-((E)-{[(3-chlorophenyl)acetyl]hydrazono}methyl)-4-methylphenyl 4-(trifluoromethyl)benzenesulfonate], the IC50 was under 5 µM. O=C(Cc1cccc(Cl)c1)N/N=C/c1cc(F)ccc1OS(=O)(=O)c1ccc(C(F)(F)F)cc1 [Compound 176, 2-((E)-{[(3-chlorophenyl)acetyl]hydrazono}methyl)-4-fluorophenyl 4-(trifluoromethyl)benzenesulfonate] showed an IC50 of under 5 µM. Compound COc1cccc(CC(=O)N/N=C/c2ccc(C)cc2OS(=O)(=O)c2ccc(C)cc2)c1 [Compound 177, 2-((E)-{[(3-methoxyphenyl)acetyl]hydrazono}methyl)-5-methylphenyl 4-methylbenzenesulfonate] has an IC50 of under 5 µM. COc1cccc(CC(=O)N/N=C/c2ccc(C)cc2OS(=O)(=O)c2ccc(C(F)(F)F)cc2)c1 [Compound 178, 2-((E)-{[(3-methoxyphenyl)acetyl]hydrazono}methyl)-5-methylphenyl 4-(trifluoromethyl)benzenesulfonate] was tested, and the IC50 was under 5 µM. Cc1ccc(/C=N/NC(=O)Cc2cccc(Cl)c2)c(OS(=O)(=O)c2ccc(C(F)(F)F)cc2)c1 [Compound 179, 2-((E)-{[(3-chlorophenyl)acetyl]hydrazono}methyl)-5-methylphenyl 4-(trifluoromethyl)benzenesulfonate] gave an IC50 of over 50 µM. For COc1cccc(CC(=O)N/N=C/c2cccc(Cl)c2OS(=O)(=O)c2ccc(C)cc2)c1 [Compound 180, 2-chloro-6-((E)-{[(3-methoxyphenyl)acetyl]hydrazono}methyl)-phenyl 4-methylbenzenesulfonate], the IC50 was under 5 µM. Work on COc1cccc(CC(=O)N/N=C/c2cccnc2OS(=O)(=O)c2ccc(C)cc2)c1 [Compound 181, 3-((E)-{2-[2-(3-methoxyphenyl)acetyl]hydrazono}methyl)-pyridin-2-yl 4-methylbenzenesulfonate] yielded an IC50 of 5 to 50 µM. COc1cccc(CC(=O)N/N=C/c2ccccc2OS(=O)(=O)c2ccc3nsnc3c2)c1 [Compound 182, 2-((E)-{2-[2-(3-methoxyphenyl)acetyl]hydrazono}methyl)-phenyl 2,1,3-benzothiadiazole-5-sulfonate] gave an IC50 of under 5 µM. CCCCCc1ccc(S(=O)(=O)Oc2ccccc2/C=N/NC(=O)Cc2cccc(OC)c2)cc1 [Compound 183, 2-((E)-{2-[2-(3-methoxyphenyl)acetyl]hydrazono}methyl)-phenyl 4-pentylbenzenesulfonate] showed an IC50 of under 5 µM. With CCCc1ccc(S(=O)(=O)Oc2ccccc2/C=N/NC(=O)Cc2cccc(OC)c2)cc1 [Compound 184, 2-((E)-{2-[2-(3-methoxyphenyl)acetyl]hydrazono}methyl)-phenyl 4-propylbenzenesulfonate] the IC50 was under 5 µM. COc1cccc(CC(=O)N/N=C/c2ncccc2OS(=O)(=O)c2ccc(C)cc2)c1 [Compound 185, 2-((E)-{2-[2-(3-methoxyphenyl)acetyl]hydrazono}methyl)-pyridin-3-yl 4-methylbenzenesulfonate] showed an IC50 of under 5 µM. Work on COc1cccc(CC(=O)N/N=C/c2ccccc2OS(=O)(=O)c2ccc(OC(C)C)cc2)c1 [Compound 186, 2-((E)-{2-[2-(3-methoxyphenyl)acetyl]hydrazono}methyl)-phenyl 4-isopropoxybenzenesulfonate] yielded an IC50 of under 5 µM. Work on COc1cccc(CC(=O)N/N=C/c2ccccc2OS(=O)(=O)c2cc(Cl)sc2Cl)c1 [Compound 187, 2-((E)-{2-[2-(3-methoxyphenyl)acetyl]hydrazono}methyl)-phenyl 2,5-dichlorothiophene-3-sulfonate] yielded an IC50 of under 5 µM. Compound COc1cccc(CC(=O)N/N=C/c2ccccc2OS(=O)(=O)c2cnn(-c3ccccc3)c2C)c1 [Compound 188, 2-((E)-{2-[2-(3-methoxyphenyl)acetyl]hydrazono}methyl)-phenyl 5-methyl-1-phenyl-1H-pyrazole-4-sulfonate] has an IC50 of under 5 µM. Compound COc1cccc(CC(=O)N/N=C/c2ccccc2OS(=O)(=O)Cc2cccc(C(F)(F)F)c2)c1 [Compound 189, 2-((E)-{2-[2-(3-methoxyphenyl)acetyl]hydrazono}methyl)-phenyl [3-(trifluoromethyl)phenyl]methanesulfonate] has an IC50 of over 50 µM. COc1cccc(CC(=O)N/N=C/c2ccccc2OS(=O)(=O)c2ccc(Br)s2)c1 [Compound 190, 2-((E)-{2-[2-(3-methoxyphenyl)acetyl]hydrazono}methyl)-phenyl 5-bromothiophene-2-sulfonate] showed an IC50 of under 5 µM. COc1cccc(CC(=O)N/N=C/c2ccccc2OS(=O)(=O)c2ccc(Oc3ccccc3)cc2)c1 [Compound 191, 2-((E)-{2-[2-(3-methoxyphenyl)acetyl]hydrazono}methyl)-phenyl 4-phenoxybenzenesulfonate] was tested, and the IC50 was over 50 µM.
